Molecular target: T1, WEE1 (Homo sapiens, UniProt P30291+Q96SW2)
T1 construct: C-terminal ePL-tagged (DiscoverX, Fremont, CA) full-length WEE1 expression construct; expressed in transfected cells; host or cells: LentiX-HEK293T (Invitrogen), lentiviral transduction; co-expressing GSPT1-GN (G576N, lacking the first 158 amino acids)
Test: WEE1-ePL degradation assay (LentiX-WEE1-ePL-GSPT1-ND cells, InCELL Hunter luminescence, 4 h)
Type: cell-based
Conditions: 293T-LentiX WEE1-ePL cells; for DC50: read-out: 293T-LentiX WEE1-ePL Degradation 4 hr (EC50)
Description: To generate LentiX-WEE1-ePL-GSPT1-ND cells for the WEE1 degradation assay, LentiX-HEK293T (Invitrogen) were transduced by lentivirus with a C-terminal ePL-tagged (DiscoverX, Fremont, CA) full-length WEE1 expression construct. […] Cells were selected and maintained in complete DMEM media (DMEM, 10% Heat Inactivated FBS, 400 μg/mL Geneticin, and 1 μg/mL puromycin at 37 C and 5% CO2). Cells were passaged every 3-4 days by reseeding 1×10^6 cells in a T150 flask.
Cells were dispensed into 384-well white plates (Corning #3570, NY) that were pre-spotted with compounds using an acoustic dispenser (Echo acoustic transfer system, Beckman Coulter Life Sciences, Carlsbad, CA) as a 10-point dose-response curve with a 3-fold dilution starting at either 1 uM or 10 uM and including a DMSO control. Twenty-five microliters of media containing 2500 cells for LentiX-oeWEE1-ePL was dispensed per well. Assay plates were incubated at 37° C. with 5% CO2 for four hours (WEE1) After incubation, 25 μL of the InCELL Hunter™ Detection Reagent Working Solution (DiscoverX, Fremont, CA) was added to each well and incubated at room temperature for 30 minutes protected from light. After 30 minutes, luminescence was read on a PHERAstar luminometer (Cary, NC).
To determine the half-maximal effective concentration (EC50) values for WEE1-ePL degradation, a four parameter logistic model was used: (Sigmoidal Dose-Response Model) (FIT=(A+((B−A)/1+((C/x)^D)))) where C is the inflection point (EC50), D is the Hill slope, and A and B are the low and high limits of the fit respectively). The lower limit of the fit (value A) is referred to as Ymin. […] The maximum limit constraint, Ymax, is similarly derived using DMSO control. The curves were processed and evaluated using Activity Base (IDBS, Alameda, CA).

[1] = lower limit of the fit (Ymin=0 luciferase inhibitor, Ymax DMSO control)
[2] = lower limit of the fit (0 = luciferase inhibitor, Ymax = DMSO control)

Row | Structure (SMILES) | 293T-LentiX WEE1-ePL Degradation 4 hr (Ymin) [1] | 293T-LentiX WEE1-ePL Degradation 4 hr (Ymin) [2] | DC50 [nM]
1 | O=C1CCC(N2Cc3cc(O[C@H]4CCN(Cc5ccc6nc(C7CCOCC7)ccc6c5)C4=O)ccc3C2=O)C(=O)N1 (stereo partly drawn) [3-(5-{[(3S)-1-{[2-(oxan-4-yl)quinolin-6-yl]methyl}-2-oxopyrrolidin-3-yl]oxy}-1-oxo-2,3-dihydro-1H-isoindol-2-yl)piperidine-2,6-dione] | 80.98 | – | –
2 | COc1nc2ccccc2cc1CN1CC[C@H](Oc2ccc3c(c2)CN(C2CCC(=O)NC2=O)C3=O)C1 (stereo partly drawn) [3-(5-{[(3S)-1-[(2-methoxyquinolin-3-yl)methyl]pyrrolidin-3-yl]oxy}-1-oxo-2,3-dihydro-1H-isoindol-2-yl)piperidine-2,6-dione] | – | 45.09 | 18.3
3 | O=C1CCC(N2Cc3cc(O[C@H]4CCN(Cc5cccc6nccn56)C4)ccc3C2=O)C(=O)N1 (stereo partly drawn) [3-(5-{[(3S)-1-({imidazo[1,2-a]pyridin-5-yl}methyl)pyrrolidin-3-yl]oxy}-1-oxo-2,3-dihydro-1H-isoindol-2-yl)piperidine-2,6-dione] | – | 57.26 | 183
4 | COC[C@@H]1CCC[C@@H](c2ccc3cc(CN4CC[C@H](Oc5ccc6c(c5)CN(C5CCC(=O)NC5=O)C6=O)C4)ccc3n2)C1 (stereo partly drawn) [3-(5-{[(3S)-1-({2-[(1R,3R)-3-(methoxymethyl)cyclohexyl]quinolin-6-yl}methyl)pyrrolidin-3-yl]oxy}-1-oxo-2,3-dihydro-1H-isoindol-2-yl)piperidine-2,6-dione] | 26.54 | – | 2.17
5 | O=C1CCC(N2Cc3cc(O[C@H]4CCN(Cc5cccc6ncncc56)C4)ccc3C2=O)C(=O)N1 (stereo partly drawn) [3-(1-oxo-5-{[(3S)-1-[(quinazolin-5-yl)methyl]pyrrolidin-3-yl]oxy}-2,3-dihydro-1H-isoindol-2-yl)piperidine-2,6-dione] | – | 58.74 | 408
6 | O=C1CCC(N2C(=O)c3ccc(O[C@@H]4CCN(Cc5ccc6ncccc6c5)C4)cc3C2=O)C(=O)N1 (stereo partly drawn) [2-(2,6-dioxopiperidin-3-yl)-5-{[(3R)-1-[(quinolin-6-yl)methyl]pyrrolidin-3-yl]oxy}-2,3-dihydro-1H-isoindole-1,3-dione] | – | 83.71 | –
7 | O=C1CCC(N2C(=O)c3ccc(O[C@@H]4CCN(Cc5cnc6ccccc6c5)C4)cc3C2=O)C(=O)N1 (stereo partly drawn) [2-(2,6-dioxopiperidin-3-yl)-5-{[(3R)-1-[(quinolin-3-yl)methyl]pyrrolidin-3-yl]oxy}-2,3-dihydro-1H-isoindole-1,3-dione] | – | 86.31 | –
8 | NCc1cccc(COc2ccccc2CN2CC[C@H](Oc3ccc4c(c3)CN(C3CCC(=O)NC3=O)C4=O)C2)c1 (stereo partly drawn) [3-(5-{[(3S)-1-[(2-{[3-(aminomethyl)phenyl]methoxy}phenyl)methyl]pyrrolidin-3-yl]oxy}-1-oxo-2,3-dihydro-1H-isoindol-2-yl)piperidine-2,6-dione] | – | 87.63 | –
9 | O=C1CCC(N2C(=O)c3ccc(O[C@@H]4CCN(Cc5cccc6ncccc56)C4)cc3C2=O)C(=O)N1 (stereo partly drawn) [2-(2,6-dioxopiperidin-3-yl)-5-{[(3R)-1-[(quinolin-5-yl)methyl]pyrrolidin-3-yl]oxy}-2,3-dihydro-1H-isoindole-1,3-dione] | – | 89.045 | –
10 | Nc1cccc(COc2cccc(CN3CC[C@H](Oc4ccc5c(c4)CN(C4CCC(=O)NC4=O)C5=O)C3)c2)c1 (stereo partly drawn) [3-(5-{[(3S)-1-({3-[(3-aminophenyl)methoxy]phenyl}methyl)pyrrolidin-3-yl]oxy}-1-oxo-2,3-dihydro-1H-isoindol-2-yl)piperidine-2,6-dione] | – | 78.15 | 818
11 | O=C1CCC(N2Cc3cc(O[C@H]4CCN(Cc5ccnc6ncccc56)C4)ccc3C2=O)C(=O)N1 (stereo partly drawn) [3-(5-{[(3S)-1-[(1,8-naphthyridin-4-yl)methyl]pyrrolidin-3-yl]oxy}-1-oxo-2,3-dihydro-1H-isoindol-2-yl)piperidine-2,6-dione] | – | 96.5 | –
12 | O=C1CCC(N2Cc3ccc(O[C@H]4CCN(Cc5ccc6cnccc6c5)C4)cc3C2=O)C(=O)N1 (stereo partly drawn) [3-(6-{[(3S)-1-[(isoquinolin-6-yl)methyl]pyrrolidin-3-yl]oxy}-1-oxo-2,3-dihydro-1H-isoindol-2-yl)piperidine-2,6-dione] | – | 80.095 | –
13 | NCc1ccccc1COc1cccc(CN2CC[C@H](Oc3ccc4c(c3)CN(C3CCC(=O)NC3=O)C4=O)C2)c1 (stereo partly drawn) [3-(5-{[(3S)-1-[(3-{[2-(aminomethyl)phenyl]methoxy}phenyl)methyl]pyrrolidin-3-yl]oxy}-1-oxo-2,3-dihydro-1H-isoindol-2-yl)piperidine-2,6-dione] | – | 74.31 | –
14 | O=C1CCC(N2Cc3cc(O[C@H]4CCN(Cc5cccc(OC(F)F)c5)C4)ccc3C2=O)C(=O)N1 (stereo partly drawn) [3-(5-{[(3S)-1-{[3-(difluoromethoxy)phenyl]methyl}pyrrolidin-3-yl]oxy}-1-oxo-2,3-dihydro-1H-isoindol-2-yl)piperidine-2,6-dione] | – | 75.96 | 196
15 | O=C1CC[C@H](N2Cc3cc(O[C@H]4CCN(Cc5cc6ccc(C7CCOCC7)nc6cc5F)C4)ccc3C2=O)C(=O)N1 [(3S)-3-(5-{[(3S)-1-{[7-fluoro-2-(oxan-4-yl)quinolin-6-yl]methyl}pyrrolidin-3-yl]oxy}-1-oxo-2,3-dihydro-1H-isoindol-2-yl)piperidine-2,6-dione] | 29.77 | – | 5.82
16 | O=C1CCC(N2Cc3cc(O[C@@H]4CCN(c5cnccn5)C4)ccc3C2=O)C(=O)N1 (stereo partly drawn) [3-(1-oxo-5-{[(3R)-1-(pyrazin-2-yl)pyrrolidin-3-yl]oxy}-2,3-dihydro-1H-isoindol-2-yl)piperidine-2,6-dione] | 110 | – | –
17 | NCc1ccccc1COc1ccccc1CN1CC[C@H](Oc2ccc3c(c2)CN(C2CCC(=O)NC2=O)C3=O)C1 (stereo partly drawn) [3-(5-{[(3S)-1-[(2-{[2-(aminomethyl)phenyl]methoxy}phenyl)methyl]pyrrolidin-3-yl]oxy}-1-oxo-2,3-dihydro-1H-isoindol-2-yl)piperidine-2,6-dione] | – | 89.91 | –
18 | NCc1ccc(COc2cccc(CN3CC[C@H](Oc4ccc5c(c4)CN(C4CCC(=O)NC4=O)C5=O)C3)c2)cc1 (stereo partly drawn) [3-(5-{[(3S)-1-[(3-{[4-(aminomethyl)phenyl]methoxy}phenyl)methyl]pyrrolidin-3-yl]oxy}-1-oxo-2,3-dihydro-1H-isoindol-2-yl)piperidine-2,6-dione] | – | 87 | –
19 | O=C1CC[C@H](N2Cc3cc(O[C@H]4CCN(Cc5ccc6nc(C7CCOCC7)ccc6c5Cl)C4)ccc3C2=O)C(=O)N1 [(3S)-3-(5-{[(3S)-1-{[5-chloro-2-(oxan-4-yl)quinolin-6-yl]methyl}pyrrolidin-3-yl]oxy}-1-oxo-2,3-dihydro-1H-isoindol-2-yl)piperidine-2,6-dione] | 28.82 | – | 2.8
20 | NCc1cccc(COc2cccc(CN3CC[C@H](Oc4ccc5c(c4)CN(C4CCC(=O)NC4=O)C5=O)C3)c2)c1 (stereo partly drawn) [3-(5-{[(3S)-1-[(3-{[3-(aminomethyl)phenyl]methoxy}phenyl)methyl]pyrrolidin-3-yl]oxy}-1-oxo-2,3-dihydro-1H-isoindol-2-yl)piperidine-2,6-dione] | – | 81.05 | –
21 | O=C1CCC(N2Cc3cc(O[C@@H]4CCN(Cc5ccc6ncccc6c5)C4)ccc3C2=O)C(=O)N1 (stereo partly drawn) [3-(1-oxo-5-{[(3R)-1-[(quinolin-6-yl)methyl]pyrrolidin-3-yl]oxy}-2,3-dihydro-1H-isoindol-2-yl)piperidine-2,6-dione] | 90.24 | – | –
22 | O=C1CCC(N2Cc3cc(O[C@@H]4CCN(Cc5ccnc6ccccc56)C4)ccc3C2=O)C(=O)N1 (stereo partly drawn) [3-(1-oxo-5-{[(3R)-1-[(quinolin-4-yl)methyl]pyrrolidin-3-yl]oxy}-2,3-dihydro-1H-isoindol-2-yl)piperidine-2,6-dione] | 87.11 | – | –
23 | O=C1CCC(N2Cc3cc(O[C@@H]4CCN(Cc5c[nH]c6ncccc56)C4)ccc3C2=O)C(=O)N1 (stereo partly drawn) [3-(1-oxo-5-{[(3R)-1-({1H-pyrrolo[2,3-b]pyridin-3-yl}methyl)pyrrolidin-3-yl]oxy}-2,3-dihydro-1H-isoindol-2-yl)piperidine-2,6-dione] | 87.61 | – | –
